Active and inactive are the calls of the source. The rule behind the calls is not given here.
Assays:
MCF7 = experiment: Antiproliferative activity against human MCF7 cells assessed as reduction in cell viability measured after 72 hrs by MTS assay; format: functional, cell-based
MDA-MB-468 = experiment: Antiproliferative activity against human MDA-MB-468 cells assessed as reduction in cell viability measured after 72 hrs by MTS assay; format: functional, cell-based
T47D = experiment: Antiproliferative activity against human T47D cells assessed as reduction in cell viability measured after 72 hrs by MTS assay; format: functional, cell-based
A549 = experiment: Antiproliferative activity against human A549 cells assessed as reduction in cell viability measured after 72 hrs by MTS assay; format: functional, cell-based
MDA-MB-231 = experiment: Antiproliferative activity against human MDA-MB-231 cells assessed as reduction in cell viability measured after 72 hrs by MTS assay; format: functional, cell-based
[1] = Binding affinity to goat tubulin by double reciprocal plot analysis; design: species or system Capra hircus
Capra hircus [2] = species: Capra hircus; experiment: Binding affinity to goat tubulin assessed as increase in tubulin-colchicine fluorescence preincubated for 30 mins followed by colchicine addition measured after 60 mins by tryptophan fluorescence quenching assay
Capra hircus [3] = species: Capra hircus; experiment: Binding affinity to goat tubulin by tryptophan fluorescence quenching assay
[4] = Homo sapiens, MDA-MB-468, 72 h, read-out: IC50
[5] = Homo sapiens, MDA-MB-231, 72 h, read-out: IC50
[6] = Homo sapiens, T47D, 72 h, read-out: IC50
[7] = Homo sapiens, MCF7, 72 h, read-out: IC50
[8] = Homo sapiens, A549, 72 h, read-out: IC50

| SMILES | IC50 (MCF7; mcf7) | IC50 (MDA-MB-468; [4]) [µM] | IC50 (T47D; t47d) | IC50 (A549; a549) | IC50 (MDA-MB-231; [5]) [µM] | IC50 (T47D; [6]) [µM] | Kd [1] [µM] | IC50 (MCF7; [7]) [µM] | Activity (Capra hircus [2]) | IC50 (A549; [8]) [µM] | IC50 (MDA-MB-468; mda-mb-468) | IC50 (MDA-MB-231; mda-mb-231) | Activity (Capra hircus [3]) |
| --- | --- | --- | --- | --- | --- | --- | --- | --- | --- | --- | --- | --- | --- |
| O=[N+]([O-])c1ccc(S(=O)(=O)N2N=C3CCCC3C2c2ccc(Cl)cc2)cc1 (centres undefined) | Not Active | 43.7 | Not Active | Not Active | 42.7 |  |  |  |  |  |  |  |  |
| CC(C)c1ccc(C2NN=C3CCCC32)cc1 (centres undefined) | Not Active | 186 |  | Not Active | 144 | 129 |  |  |  |  |  |  |  |
| Cc1ccc(S(=O)(=O)N2N=C3CCCC3C2c2ccc(C(C)C)cc2)cc1 (centres undefined) | Not Active | 7.9 |  | Not Active | 15.5 | 40.7 |  |  |  |  |  |  |  |
| COc1ccc(C2C3CCCC3=NN2S(C)(=O)=O)cc1 (centres undefined) |  | 1 |  |  | 8.7 | 0.8 | 85 | 15.8 | Dose-dependent effect | 19.1 |  |  |  |
| COc1ccc(C2C3CCCC3=NN2S(=O)(=O)c2ccc([N+](=O)[O-])cc2)cc1 (centres undefined) |  |  | Not Active | Not Active |  |  |  | 151 |  |  | Not Active | Not Active |  |
| COc1ccc(C2C3CCCC3=NN2S(=O)(=O)c2ccc(C)cc2)cc1 (centres undefined) |  |  | Not Active | Not Active |  |  |  | 178 |  |  | Not Active | Not Active |  |
| COc1ccc(C2NN=C3CCCC32)cc1 (centres undefined) |  | 20 | Not Active |  |  |  |  | 24 |  | 44.7 |  | Not Active |  |
| CC(C)c1ccc(C2C3CCCC3=NN2S(=O)(=O)c2ccc(Cl)cc2)cc1 (centres undefined) | Not Active | 15.5 | Not Active | Not Active |  |  |  |  |  |  |  | Not Active |  |
| CS(=O)(=O)N1N=C2CCCC2C1c1ccc(F)cc1 (centres undefined) |  | 70.8 | Not Active |  | 51.3 |  | 127 | 75.9 | Dose-dependent effect | 81.3 |  |  |  |
| Fc1ccc(C2NN=C3CCCC32)cc1 (centres undefined) |  | 14.8 |  |  | 30.9 | 37.2 |  | 38 |  | 30.9 |  |  |  |
| CC(C)c1ccc(C2C3CCCC3=NN2S(C)(=O)=O)cc1 (centres undefined) | Not Active | 120 | Not Active | Not Active |  |  |  |  |  |  |  | Not Active |  |
| CC(C)c1ccc(C2C3CCCC3=NN2S(=O)(=O)c2ccc([N+](=O)[O-])cc2)cc1 (centres undefined) | Not Active | 28.2 | Not Active | Not Active |  |  |  |  |  |  |  | Not Active |  |
| CC(=O)O[C@H]1C(=O)[C@@]2(C)[C@H]([C@H](OC(=O)c3ccccc3)[C@]3(O)C[C@H](OC(=O)[C@H](O)[C@@H](NC(=O)c4ccccc4)c4ccccc4)C(C)=C1C3(C)C)[C@]1(OC(C)=O)CO[C@@H]1C[C@@H]2O [PACLITAXEL] |  | 0.2 |  |  | 0.1 | 0.2 |  | 0.1 |  |  |  |  |  |
| O=S(=O)(c1ccc(Cl)cc1)N1N=C2CCCC2C1c1ccc(F)cc1 (centres undefined) | Not Active |  |  | Not Active | 9.3 | 89.1 |  |  |  |  | Not Active |  |  |
| Cc1ccc(S(=O)(=O)N2N=C3CCCC3C2c2ccc(F)cc2)cc1 (centres undefined) |  | 3.8 |  |  | 1.1 | 3.3 |  | 50.1 |  | 5.8 |  |  | Active |
| Clc1ccc(C2NN=C3CCCC32)cc1 (centres undefined) |  | 10.2 |  |  | 25.1 | 29.5 |  | 51.3 |  | 47.9 |  |  |  |

Reference: ChEMBL document CHEMBL4425172, “Chemical synthesis, pharmacological evaluation and in silico analysis of new 2,3,3a,4,5,6-hexahydrocyclopenta[c]pyrazole derivatives as potential anti-mitotic agents” (Bioorg Med Chem Lett, 2016)
